Experimental data taken from patent US11040981B2, “Pyrrolotriazine compounds and methods of inhibiting TAM kinases” (Syros Pharmaceuticals, Inc., priority 2017, dated 2021).

Legend:
FLT3 = target: T1, FLT3 (Homo sapiens, UniProt P36888); assay: TR-FRET kinase activity assay, FLT3; assay type: biochemical; details: ATP at Km, 60 minutes
T1 sequence (P36888 27-993): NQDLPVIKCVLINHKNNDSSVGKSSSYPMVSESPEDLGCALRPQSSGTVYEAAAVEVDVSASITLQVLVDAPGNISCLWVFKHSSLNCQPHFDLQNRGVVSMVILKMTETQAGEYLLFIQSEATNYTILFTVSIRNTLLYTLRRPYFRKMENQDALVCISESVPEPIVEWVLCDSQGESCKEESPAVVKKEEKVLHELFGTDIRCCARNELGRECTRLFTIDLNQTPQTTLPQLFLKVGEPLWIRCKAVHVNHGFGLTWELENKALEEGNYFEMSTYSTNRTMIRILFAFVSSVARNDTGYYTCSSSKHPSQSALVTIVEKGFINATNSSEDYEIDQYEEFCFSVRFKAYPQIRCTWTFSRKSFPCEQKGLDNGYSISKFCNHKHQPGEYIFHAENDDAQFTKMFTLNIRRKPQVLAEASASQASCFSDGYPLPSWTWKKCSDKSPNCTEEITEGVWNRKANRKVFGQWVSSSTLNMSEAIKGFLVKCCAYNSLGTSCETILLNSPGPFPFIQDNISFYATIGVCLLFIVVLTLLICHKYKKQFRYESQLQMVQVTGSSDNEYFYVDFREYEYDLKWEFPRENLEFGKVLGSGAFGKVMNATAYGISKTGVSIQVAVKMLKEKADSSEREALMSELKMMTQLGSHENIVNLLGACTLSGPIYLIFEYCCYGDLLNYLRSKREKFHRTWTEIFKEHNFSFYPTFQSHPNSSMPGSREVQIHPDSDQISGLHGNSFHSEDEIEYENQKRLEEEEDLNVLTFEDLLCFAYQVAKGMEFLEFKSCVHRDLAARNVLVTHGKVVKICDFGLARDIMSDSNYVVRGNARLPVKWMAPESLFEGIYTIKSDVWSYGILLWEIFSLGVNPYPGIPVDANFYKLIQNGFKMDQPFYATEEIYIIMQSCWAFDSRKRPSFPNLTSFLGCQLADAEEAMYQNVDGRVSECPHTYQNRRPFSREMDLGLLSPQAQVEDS
Procedure, shortened: (§1)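 Recombinant human kinases, fluorescent peptide substrate, ATP at Km; 1 h RT, pH 7.5. EDTA-quenched, Eu antibody added, TR-FRET read; IC50 determined.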

MERTK = target: T2, MERTK (Homo sapiens, UniProt Q12866); assay: TR-FRET kinase activity assay, MERTK; assay type: biochemical; details: for IC50: TR-FRET activity assay, ATP at Km, 60 minutes, read-out: Mer IC50; for FLT3/Mer ratio (FLT3 IC50/Mer IC50): ratio of Mer to FLT3: FLT3 IC50/Mer IC50
T2 sequence (Q12866 21-999): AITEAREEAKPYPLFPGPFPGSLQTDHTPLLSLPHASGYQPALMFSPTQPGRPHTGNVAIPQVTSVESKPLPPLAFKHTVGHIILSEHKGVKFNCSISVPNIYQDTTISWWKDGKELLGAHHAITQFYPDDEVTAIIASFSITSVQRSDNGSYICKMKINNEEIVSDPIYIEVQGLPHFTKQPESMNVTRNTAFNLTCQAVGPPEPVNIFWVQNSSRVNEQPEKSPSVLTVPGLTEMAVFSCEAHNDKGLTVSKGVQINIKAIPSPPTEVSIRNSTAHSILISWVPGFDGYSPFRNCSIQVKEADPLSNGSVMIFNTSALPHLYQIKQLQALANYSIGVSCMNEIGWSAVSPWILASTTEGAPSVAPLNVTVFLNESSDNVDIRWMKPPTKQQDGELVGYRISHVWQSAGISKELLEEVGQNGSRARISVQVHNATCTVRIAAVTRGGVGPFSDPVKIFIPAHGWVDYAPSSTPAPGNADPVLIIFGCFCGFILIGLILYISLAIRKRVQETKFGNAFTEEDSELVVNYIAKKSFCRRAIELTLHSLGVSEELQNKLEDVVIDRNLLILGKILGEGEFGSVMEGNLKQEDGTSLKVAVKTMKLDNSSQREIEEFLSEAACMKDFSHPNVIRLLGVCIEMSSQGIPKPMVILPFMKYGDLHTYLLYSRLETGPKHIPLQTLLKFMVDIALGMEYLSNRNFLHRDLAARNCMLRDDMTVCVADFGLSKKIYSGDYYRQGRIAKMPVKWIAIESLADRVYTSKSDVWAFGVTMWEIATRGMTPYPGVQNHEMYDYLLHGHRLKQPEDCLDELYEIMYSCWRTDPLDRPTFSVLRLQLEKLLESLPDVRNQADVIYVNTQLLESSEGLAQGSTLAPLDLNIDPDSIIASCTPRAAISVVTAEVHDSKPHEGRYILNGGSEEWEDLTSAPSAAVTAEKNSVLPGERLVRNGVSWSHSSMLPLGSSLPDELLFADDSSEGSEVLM
Procedure, shortened: as §1

Row | Compound | IC50 (FLT3) [nM] | IC50 (MERTK) [nM] | FLT3/Mer ratio (FLT3 IC50/Mer IC50) (MERTK)
1 | COC[C@H](C)Nc1ncc2c(-c3cnn(CC(=O)N(C)C)c3)cc([C@H]3CC[C@H](O)CC3)n2n1 [Compound 238] | 100 to 1000 | ≤ 100 | +++ (“+++” represents a ratio of >100)
2 | COC[C@H](C)Nc1ncc2c(-c3cnn(CC(=O)N4CCCC4)c3)cc([C@H]3CC[C@H](O)CC3)n2n1 [Compound 239] | 100 to 1000 | ≤ 100 | +++ (“+++” represents a ratio of >100)
3 | COC[C@H](C)Nc1ncc2c(-c3cnn(CC(=O)N4CCN(C)CC4)c3)cc([C@H]3CC[C@H](O)CC3)n2n1 [Compound 240] | 100 to 1000 | ≤ 100 | +++ (“+++” represents a ratio of >100)
4 | CNC(=O)Cn1cc(-c2cc([C@H]3CC[C@H](O)CC3)n3nc(N[C@@H](C)COC)ncc23)cn1 [Compound 241] | 100 to 1000 | ≤ 100 | +++ (“+++” represents a ratio of >100)
5 | COC[C@H](C)Nc1ncc2c(-c3cnn([C@@H]4CCOC4)c3)cc([C@H]3CC[C@H](O)CC3)n2n1 [Compound 242] | 100 to 1000 | ≤ 100 | +++ (“+++” represents a ratio of >100)
6 | COC[C@H](C)Nc1ncc2c(-c3cnn([C@H]4CCOC4)c3)cc([C@H]3CC[C@H](O)CC3)n2n1 [Compound 243] | 100 to 1000 | ≤ 100 | +++ (“+++” represents a ratio of >100)
7 | CC(CCF)Nc1ncc2c(-c3ccc(CN4CCOCC4)cc3)cc(C3CCC(O)CC3)n2n1 (stereo not drawn) [Compound 244] | ≤ 100 | ≤ 100 | ++ (“++” represents a ratio of between 10 and 100)
8 | COC[C@H](C)Nc1ncc2c(-c3cn(C[Si](C)(C)C)nn3)cc([C@H]3CC[C@H](O)CC3)n2n1 [Compound 248] | 1000 to 10000 | ≤ 100 | +++ (“+++” represents a ratio of >100)
9 | COC[C@H](C)Nc1ncc2c(-c3ccc4c(c3)NC(=O)C4)cc([C@H]3CC[C@H](O)CC3)n2n1 [Compound 249] | 100 to 1000 | ≤ 100 | +++ (“+++” represents a ratio of >100)
10 | COC[C@H](C)Nc1ncc2c(-c3ccc4c(c3)CC(=O)N4)cc([C@H]3CC[C@H](O)CC3)n2n1 [Compound 251] | 100 to 1000 | ≤ 100 | +++ (“+++” represents a ratio of >100)
11 | COC[C@H](C)Nc1ncc2c(-c3ccc4c(c3)CNC4=O)cc([C@H]3CC[C@H](O)CC3)n2n1 [Compound 252] | 100 to 1000 | ≤ 100 | +++ (“+++” represents a ratio of >100)
12 | COC[C@H](C)Nc1ncc2c(-c3ccc(N4CCOCC4)nc3)cc([C@H]3CC[C@H](O)CC3)n2n1 [Compound 254] | 100 to 1000 | ≤ 100 | +++ (“+++” represents a ratio of >100)
13 | CC(CCOC(F)F)Nc1ncc2c(-c3ccc(CN4CCOCC4)cc3)cc(C3CCC(O)CC3)n2n1 (stereo not drawn) [Compound 255] | ≤ 100 | ≤ 100 | ++ (“++” represents a ratio of between 10 and 100)
14 | COC[C@H](C)Nc1ncc2c(-c3ccnc(N4CCN(C)CC4)c3)cc([C@H]3CC[C@H](O)CC3)n2n1 [Compound 256] | 100 to 1000 | ≤ 100 | +++ (“+++” represents a ratio of >100)
15 | COC[C@H](C)Nc1ncc2c(-c3ccc(C)cn3)cc([C@H]3CC[C@H](O)CC3)n2n1 [Compound 258] | 1000 to 10000 | ≤ 100 | ++ (“++” represents a ratio of between 10 and 100)
16 | COC[C@H](C)Nc1ncc2c(-c3ccnc(N4CCOCC4)c3)cc([C@H]3CC[C@H](O)CC3)n2n1 [Compound 259] | 100 to 1000 | ≤ 100 | +++ (“+++” represents a ratio of >100)
17 | COCCn1cc(-c2cc([C@H]3CC[C@H](O)CC3)n3nc(N[C@@H](C)CC(F)(F)F)ncc23)cn1 [Compound 262] | ≤ 100 | ≤ 100 | +++ (“+++” represents a ratio of >100)
18 | CNC(=O)c1ccc(-c2cc([C@H]3CC[C@H](O)CC3)n3nc(N[C@@H](C)CC(F)(F)F)ncc23)cn1 [Compound 263] | ≤ 100 | ≤ 100 | ++ (“++” represents a ratio of between 10 and 100)
19 | COC[C@H](C)Nc1ncc2c(-c3cnn(CC(C)(C)O)c3)cc([C@H]3CC[C@H](O)CC3)n2n1 [Compound 264] | 1000 to 10000 | ≤ 100 | +++ (“+++” represents a ratio of >100)

Continued, values first:

Row | IC50 (FLT3) [nM] | IC50 (MERTK) [nM] | FLT3/Mer ratio (FLT3 IC50/Mer IC50) (MERTK) | Compound
20 | 1000 to 10000 | ≤ 100 | +++ (“+++” represents a ratio of >100) | CNC(=O)c1cncc(-c2cc([C@H]3CC[C@H](O)CC3)n3nc(N[C@@H](C)COC)ncc23)c1 [Compound 245]
21 | 100 to 1000 | ≤ 100 | +++ (“+++” represents a ratio of >100) | COC[C@H](C)Nc1ncc2c(-c3ccc(C)nc3)cc([C@H]3CC[C@H](O)CC3)n2n1 [Compound 246]
22 | 1000 to 10000 | ≤ 100 | +++ (“+++” represents a ratio of >100) | COC[C@H](C)Nc1ncc2c(-c3cncc(C(N)=O)c3)cc([C@H]3CC[C@H](O)CC3)n2n1 [Compound 247]
23 | 1000 to 10000 | ≤ 100 | +++ (“+++” represents a ratio of >100) | COC[C@H](C)Nc1ncc2c(-c3cn(C)nn3)cc([C@H]3CC[C@H](O)CC3)n2n1 [Compound 250, (trans)-4-(2-(((S)-1-methoxypropan-2-yl)amino)-5-(1-methyl-1H-1,2,3-triazol-4-yl)pyrrolo[2,1-f][1,2,4]triazin-7-yl)cyclohexanol]
24 | 1000 to 10000 | ≤ 100 | +++ (“+++” represents a ratio of >100) | COCC(C)Nc1ncc2c(-c3cccc(C)n3)cc(C3CCC(O)CC3)n2n1 (stereo not drawn) [Compound 253]
25 | 1000 to 10000 | ≤ 100 | +++ (“+++” represents a ratio of >100) | COC[C@H](C)Nc1ncc2c(-c3cc(C)ccn3)cc([C@H]3CC[C@H](O)CC3)n2n1 [Compound 257]
26 | 100 to 1000 | ≤ 100 | +++ (“+++” represents a ratio of >100) | COC[C@H](C)Nc1ncc2c(-c3cn(C)nc3C)cc([C@H]3CC[C@H](O)CC3)n2n1 [Compound 260]
27 | 1000 to 10000 | ≤ 100 | +++ (“+++” represents a ratio of >100) | COC[C@H](C)Nc1ncc2c(-c3cnc(C)o3)cc([C@H]3CC[C@H](O)CC3)n2n1 [Compound 261]
